From paper PMC12486159 (American journal of physiology. Renal physiology, 2025)

Biological target: human FATP2 (Homo sapiens, UniProt O14975)
Assay: BODIPY-FA uptake in FATP2-overexpressing HPCT cells, fluorescence plate reader
Assay type: cell-based

Chain of human FATP2 (O14975 whole entry): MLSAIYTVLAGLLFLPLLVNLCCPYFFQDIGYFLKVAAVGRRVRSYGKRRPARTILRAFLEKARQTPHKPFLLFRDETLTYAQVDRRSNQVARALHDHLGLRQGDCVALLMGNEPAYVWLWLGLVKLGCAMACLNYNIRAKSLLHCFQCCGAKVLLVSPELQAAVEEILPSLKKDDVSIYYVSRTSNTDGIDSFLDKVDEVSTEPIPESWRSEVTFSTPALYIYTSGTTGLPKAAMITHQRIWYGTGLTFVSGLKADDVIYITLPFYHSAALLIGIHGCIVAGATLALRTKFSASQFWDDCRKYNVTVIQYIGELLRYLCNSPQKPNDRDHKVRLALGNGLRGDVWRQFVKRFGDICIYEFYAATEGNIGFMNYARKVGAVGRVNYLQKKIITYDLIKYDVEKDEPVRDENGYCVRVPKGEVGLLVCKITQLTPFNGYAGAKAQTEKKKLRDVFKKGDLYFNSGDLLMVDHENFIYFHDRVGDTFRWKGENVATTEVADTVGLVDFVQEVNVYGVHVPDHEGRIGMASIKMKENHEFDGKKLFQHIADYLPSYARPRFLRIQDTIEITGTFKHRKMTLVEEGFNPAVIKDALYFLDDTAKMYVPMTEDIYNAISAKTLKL

- IC50: 5 µM
SMILES: O=C1Nc2ccc(Br)cc2C12NN=C(c1ccccc1)S2 (stereo not shown) [Lipofermata]
